Experimental data as given in patent US20260314597A1, “A NOVEL APPROACH TO INTERFERE IN THE PHENYLPROPANOID BIOSYNTHETIC PATHWAY TO REDUCE PINK-RIB DISORDER IN FRESH LETTUCE” (University of Florida Research Foundation, Inc., priority 2022, published 2026).
“Also recorded” adds a separate entry of the source.

What was measured:
[1] = tested on: iceberg and Romaine lettuce midribs; assay: Visual (subjective) pink rib development in wounded, immersed lettuce midribs stored at 5° C.; format: in vivo; settings: for reduction of pink rib severity: naringenin (1.8 mM) and serotonin, reason for not imaging
Experimental: Six preliminary experiments were performed to determine treatment conditions for the three final experiments reported here. It was determined that the method developed by Cantwell (2016) induced pink rib discoloration in lettuce midribs during storage at 5° C. via mimicking mechanical damage and was, therefore, selected for use in all preliminary and final tests. […] Concentrations evaluated were: L-cysteine (0.4, 0.8, 2.1, 4.1, 8.3 mM), naringenin (0.2, 0.4, 0.9, 1.8, 3.7 mM), serotonin (2.8, 5.7 mM), and melatonin (0.2, 0.4, 1.1, 2.2, 4.3 mM) (data not presented). […] Therefore, this study employed the one or two concentrations for each compound with the greatest potential efficacy in three independent tests, Test 1 to 3 (Table 1).
For Test 1, the evaluations for pink rib development, protein quantification, and enzyme activity were conducted with Romaine and iceberg lettuce heads (36 heads per type; cultivars unknown) purchased (February 2020) upon arrival at a local grocery store in Gainesville, FL, and immediately transported to the Postharvest Horticulture Laboratory at the University of Florida in Gainesville, FL. For Test 2, metabolite extraction and detection were conducted with commercially grown, harvested, and cooled Romaine (‘Tall Guzmaine’) and iceberg (‘Chosen’) lettuce (December 2020) grown in Belle Glade, FL. For Test 3, untargeted metabolomics was performed using commercially grown, harvested, and cooled Romaine (‘Manatee’) lettuce grown in Belle Glade, FL (April 2021). To keep the lettuce head samples cool while preventing freeze damage during transport, a 3- to 6-inch layer of crushed ice was placed on the bottom of each 114-L cooler. A piece of waxed, corrugated fiberboard was placed on top of the ice prior to packing with the lettuce samples for transport the same day to the Postharvest Horticulture Laboratory in Gainesville (approximately 4 h distant).
In all tests, experimental setup began immediately upon arrival to the laboratory. 90 outer leaves were randomly selected from 18 to 22 lettuce heads that met commercial and damage-free quality standards. A midrib segment (12.5 cm) was excised from the center of each leaf and excess leaf blade tissue was trimmed parallel to the midrib. This procedure was adapted from the wounding procedure of Cantwell (2016). Each midrib was then partially sliced transversally at 1.3-cm increments along the midrib. Midribs (n=15) were immediately immersed for 30 s in one of five treatment solutions: deionized water (wounded control), L-cysteine (4.1 mM), naringenin (1.8 mM) with 20% dimethyl sulfoxide (DMSO), serotonin (2.8 or 5.7 mM) or melatonin (4.3 mM) with 0.50% DMSO. Immediately following immersion, the midribs for each treatment were patted dry using paper towels and placed (n=5) in a breathable, high-density polyethylene bag (n=3) (Narrow Profile Produce Bags [14×18 inches] Model No. S-19156, Uline®, Pleasant Prairie, WI). Unwounded control midribs were stored in the same manner. To allow for direct comparison, each cut site on each midrib was assigned an initial discoloration value on day 1 based on the coloration of the rib. Samples were stored at 5° C. with 95-98% relative humidity (RH) for 5 d, simulating commercial storage.
All chemicals were of laboratory or reagent grade from Alfa Aesar (Thermo Fisher Scientific, Ward Hill, MA, USA) or Phyto Technology Laboratories (Shawnee Mission, KS, USA). L-cysteine (4.1 mM) solution was prepared by dissolving […] in 100 ml deionized water. Naringenin (1.8 mM) solution was prepared by dissolving […] in 20 mL of DMSO and diluting to a 100 mL volume with deionized water. A stock solution of serotonin (5.7 mM) was prepared by dissolving 100 mg of serotonin in 100 ml of deionized water; a second solution of serotonin (2.8 mM) was prepared by diluting the stock solution two-fold with deionized water. […]

[2] = tested on: PAL; settings: naringenin; cited from earlier work
[3] = naringenin; in vitro for lettuce; cited from earlier work
[4] = tested on: PPO; settings: role: substrate; lettuce tissues; cited from earlier work
[5] = tested on: apple and pear discs; settings: serotonin 1 mM, 4° C., cited from earlier work
[6] = tested on: fresh lettuce midribs; settings: literature treatments; cited from earlier work

O=C1C[C@@H](c2ccc(O)cc2)Oc2cc(O)cc(O)c21 [naringenin]
pink rib severity (visual rating) ([1]; iceberg, naringenin 1.8 mM, 5 d at 5° C.): moderately severe (4=moderately severe)
pink rib severity (visual rating) ([1]; iceberg, naringenin immersion up to 3.7 mM, 5 d at 5° C.): moderately severe (4=moderately severe)
reduction of pink rib severity [1]: unsuccessful reduction of pink rib severity; also recorded: equally unsuccessful
effect on pink rib ([1]; naringenin up to 3.7 mM, 5 d at 5° C.): did not successfully reduce pink rib
PAL activity and subsequent development of phenylpropanoids [2]: represses PAL activity and subsequent development of phenylpropanoids
antioxidant capacity (FRAP) [3]: increase in antioxidant capacity

O=C(/C=C/c1ccc(O)c(O)c1)O[C@@H]1C[C@](O)(C(=O)O)C[C@@H](O)[C@H]1O [chlorogenic acid]
specificity to PPO [4]: greatest specificity to PPO

NCCc1c[nH]c2ccc(O)cc12 [serotonin]
pink rib severity (visual rating) ([1]; Romaine, serotonin 2.8 or 5.7 mM, 5 d at 5° C.): moderately severe (4=moderately severe)
pink rib severity (visual rating) ([1]; iceberg, serotonin 2.8 or 5.7 mM, 5 d at 5° C.): moderate (3=moderate)
reduction of pink rib severity [1]: unsuccessful reduction of pink rib severity
effect on pink rib development ([1]; serotonin, iceberg and Romaine, 5 d at 5° C.): did not reduce pink rib development in either lettuce type
extension of bright appearance ([5]; 30-min submersion): up to 6 months
browning inhibition compared with ascorbic acid ([5]; 30 min): more effective than ascorbic acid
duration of browning inhibition ([5]; 30 min): up to 24 h

O=C(O)CN(CCN(CC(=O)O)CC(=O)O)CC(=O)O [ethylenediaminetetracetic acid (EDTA), ethylenediaminetetracetic acid]
effectiveness in reducing pink rib discoloration [6]: slightly effective or completely ineffective

O=C(O)CC(O)(CC(=O)O)C(=O)O [citric acid]
effectiveness in reducing pink rib discoloration [6]: slightly effective or completely ineffective

N[C@@H](CCC(=O)N[C@@H](CS)C(=O)NCC(=O)O)C(=O)O [glutathione]
effectiveness in reducing pink rib discoloration [6]: slightly effective or completely ineffective

CC1=CC1 [1-methylcyclopropene]
effectiveness in reducing pink rib discoloration [6]: slightly effective or completely ineffective

[Cl-].[Na+] [NaCl]
effectiveness in reducing pink rib discoloration [6]: slightly effective or completely ineffective

O=C(O)c1ccc(O)cc1 [p-hydroxybenzoic acid]
effectiveness in reducing pink rib discoloration [6]: slightly effective or completely ineffective

C=C [ethylene]
effectiveness in reducing pink rib discoloration [6]: slightly effective or completely ineffective

CCCCCCc1ccc(O)cc1O [4-hexylresorcinol]
effectiveness in reducing pink rib discoloration [6]: slightly effective or completely ineffective
